Data published in patent publication EP4714938A1, “HDAC1/2 SELECTIVE INHIBITOR AND USE THEREOF” (Wigen Biomedicine Technology (Shanghai) Co., Ltd., priority 2023, dated 2024).
Like-named read-outs stand apart in the source and are kept apart here.

What was measured:
293T cell = assay: Inhibition of cell proliferation (CTG, intracellular ATP); format: cell-based; settings: Homo sapiens, HEK-293T, 72 h
Protocol: (§1) Jurkat or 293T cells were seeded into a 96-well plate at 3000 cells/well. After overnight adherence culture, the serially diluted compound in DMSO was added. After 72 h, the intracellular ATP level was determined by CTG. The IC50 for the inhibition of cell proliferation by the compounds was calculated compared to the DMSO group. Table 7. Inhibitory activity of compounds of the present disclosure against Jurkat/293T cell proliferation (IC50, µM)

Jurkat cell = assay: as above; format: cell-based; settings: Homo sapiens, Jurkat, 72 h
Protocol: as §1

HDAC1 = HDAC1 (Homo sapiens, UniProt Q13547); assay: HDAC enzyme inhibitory activity, FRET method; format: biochemical
Protocol: (§3) The compounds of the present disclosure were assayed for enzyme inhibitory activity against various subtypes of HDAC enzymes by the FRET method. The various subtypes of HDAC enzymes were obtained either through purification or direct purchase of assay kits.
(§4) The specific method was as follows: The enzyme was added to a 384-well plate, and a reaction buffer was added to the control well. Serially diluted DMSO sample solutions were added to the reaction wells, and the plate was incubated at room temperature for 15 min. Then a chromogenic agent was added to stop the reaction, and fluorescence was generated. The fluorescence intensity was measured using an EnVision multi-label microplate reader (excitation: 355 nm, emission: 460 nm). The endpoint value was read after the color development reached stability. The inhibition IC50 of the compounds was calculated using GraphPad Prism4 software relative to DMSO.

[1] = system: Mouse colon cancer CT-26 cells; settings: for Tumor response, number of mice (CR/PR/SD): 6 mice per group; for TGI(%): QD for 14 consecutive days, PO
Protocol: Female BALB/c mice (aged 6 weeks, 18-22 g) were provided by Vital River Laboratory Animal Technology Co., Ltd. (China) and used one week after quarantine and acclimation. All animals were kept in a room at 23±2 °C with a relative humidity of 50±5%, artificial lighting was provided from 08:00 to 20:00 every day, and the air was exchanged 13-18 times per hour.
Mouse colon cancer CT-26 cells were cultured conventionally in 1640 medium containing 10% fetal bovine serum in an incubator at 37 °C with 5% CO2. After being subcultured, the cells were collected when they reached the desired amount. The BALB/c mice were subcutaneously injected with 2 × 10^5 CT-26 cells on the right side to form tumors. After the tumors grew to about 100 mm^3, the animals were randomly grouped for administration. Tumor volumes were measured with a caliper on day 3, day 7, day 10, day 14, day 17, and day 21 after the administration. The ability of the compounds to inhibit tumor growth was evaluated according to the tumor growth inhibition rate (TGI) = 1 - (tumor volume on day 28 in treatment group - tumor volume on day 1 in treatment group)/(tumor volume on day 28 in control group - tumor volume on day 1 in control group). The toxicity of the compounds was evaluated according to the body weight and state of the mice.

HDAC3 = HDAC3 (Homo sapiens, UniProt O15379); assay: HDAC enzyme inhibitory activity, FRET method; format: biochemical
Protocol: as §3, §4

Acetyl lysine = assay: Intracellular acetyl lysine level by ELISA in HeLa cells; format: cell-based; settings: 24 h of treatment
Protocol: (§2) HeLa cells were seeded into a 96-well plate at 20000 cells/well. After overnight adherence culture, the serially diluted compound was added. After 24 h of treatment, intracellular levels of acetyl lysine and H3K 27 acetyl lysine were quantified by ELISA. Table 8. Effect of compound of the present disclosure on levels of acetyl lysine and H3K 27 acetyl lysine

HDAC4 = HDAC4 (Homo sapiens, UniProt P56524); assay: HDAC enzyme inhibitory activity, FRET method; format: biochemical; settings: Table 6; read-out: IC50 HDAC subtype 4
Protocol: as §3, §4

HDAC11 = target: T1, HDAC11 (Homo sapiens, UniProt Q96DB2); assay: HDAC enzyme inhibitory activity, FRET method; format: biochemical; settings: Table 6; read-out: IC50 HDAC subtype 11
T1 sequence (Q96DB2 1-347): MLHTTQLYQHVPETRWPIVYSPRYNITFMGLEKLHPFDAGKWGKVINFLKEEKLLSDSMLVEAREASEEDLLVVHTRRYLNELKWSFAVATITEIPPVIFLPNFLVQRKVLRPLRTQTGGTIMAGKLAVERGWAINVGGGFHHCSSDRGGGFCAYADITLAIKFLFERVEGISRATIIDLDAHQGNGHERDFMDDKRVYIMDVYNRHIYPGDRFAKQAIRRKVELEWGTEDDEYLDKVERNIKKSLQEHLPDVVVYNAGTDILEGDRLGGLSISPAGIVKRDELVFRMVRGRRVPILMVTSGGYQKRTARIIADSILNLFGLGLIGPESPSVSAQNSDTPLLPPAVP
Protocol: as §3, §4

HDAC7 = target: T2, HDAC7 (Homo sapiens, UniProt Q8WUI4); assay: HDAC enzyme inhibitory activity, FRET method; format: biochemical; settings: Table 6; read-out: IC50 HDAC subtype 7
T2 sequence (Q8WUI4 1-952): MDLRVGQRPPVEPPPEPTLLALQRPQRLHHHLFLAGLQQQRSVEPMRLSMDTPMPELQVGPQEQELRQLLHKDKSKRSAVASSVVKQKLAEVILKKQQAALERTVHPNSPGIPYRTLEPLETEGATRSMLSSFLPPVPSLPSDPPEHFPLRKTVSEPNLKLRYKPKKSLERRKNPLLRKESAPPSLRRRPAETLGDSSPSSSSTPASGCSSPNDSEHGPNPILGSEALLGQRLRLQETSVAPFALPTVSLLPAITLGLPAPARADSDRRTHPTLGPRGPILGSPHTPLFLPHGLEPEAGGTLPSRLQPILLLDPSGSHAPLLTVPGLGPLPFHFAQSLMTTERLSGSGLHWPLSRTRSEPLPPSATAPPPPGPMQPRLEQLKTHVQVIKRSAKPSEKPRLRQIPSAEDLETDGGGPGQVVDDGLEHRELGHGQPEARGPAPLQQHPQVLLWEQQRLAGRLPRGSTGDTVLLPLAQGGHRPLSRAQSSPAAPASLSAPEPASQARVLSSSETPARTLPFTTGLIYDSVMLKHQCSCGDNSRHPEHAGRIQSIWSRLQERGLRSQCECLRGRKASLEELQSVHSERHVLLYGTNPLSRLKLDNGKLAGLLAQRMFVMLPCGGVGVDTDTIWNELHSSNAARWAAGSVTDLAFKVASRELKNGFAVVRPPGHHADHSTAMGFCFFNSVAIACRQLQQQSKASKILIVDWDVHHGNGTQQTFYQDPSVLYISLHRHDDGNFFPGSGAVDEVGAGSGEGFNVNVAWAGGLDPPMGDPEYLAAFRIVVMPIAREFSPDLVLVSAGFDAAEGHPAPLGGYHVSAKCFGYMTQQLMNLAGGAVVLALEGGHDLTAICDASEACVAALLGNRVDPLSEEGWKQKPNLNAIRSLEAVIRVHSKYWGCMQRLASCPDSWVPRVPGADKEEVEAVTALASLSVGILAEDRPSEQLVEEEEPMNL
Protocol: as §3, §4

HDAC5 = HDAC5 (Homo sapiens, UniProt Q9UQL6); assay: HDAC enzyme inhibitory activity, FRET method; format: biochemical; settings: Table 6; read-out: IC50 HDAC subtype 5
Protocol: as §3, §4

[2] = system: Mouse colon cancer MC38 cells; settings: MC-38
Protocol: Female C57BL6N mice (aged 6 weeks, 18-22 g) were provided by Vital River Laboratory Animal Technology Co., Ltd. (China) and used one week after quarantine and acclimation. All animals were kept in a room at 23±2 °C with a relative humidity of 50±5%, artificial lighting was provided from 08:00 to 20:00 every day, and the air was exchanged 13-18 times per hour.
Mouse colon cancer MC38 cells were cultured conventionally in 1640 medium containing 10% fetal bovine serum in an incubator at 37 °C with 5% CO2. After being subcultured, the cells were collected when they reached the desired amount. The C57BL6N mice were subcutaneously injected with 2 × 10^6 MC38 cells on the right side to form tumors. After the tumors grew to about 100 mm^3, the animals were randomly grouped for administration. Tumor volumes were measured with a caliper on day 3, day 7, day 10, day 14, day 17, and day 21 after the administration. The ability of the compounds to inhibit tumor growth was evaluated according to the tumor growth inhibition rate (TGI) = 1 - (tumor volume on day 28 in treatment group - tumor volume on day 1 in treatment group)/(tumor volume on day 28 in control group - tumor volume on day 1 in control group). The toxicity of the compounds was evaluated according to the body weight and state of the mice.
The groups were as follows: 1) solvent control group; 2) PD-1+Reg group; 3) Compound 1 group; 4) Reference Compound group; 5) compound 1 (10mg/kg) and PD-1+Reg Combination group; 6) compound 1 (30mg/kg) and PD-1+Reg Combination group; 7) compound 1 (90mg/kg) and PD-1+Reg Combination group; 8) Reference Compound (10mg/kg) and PD-1+Reg Combination group; 9) Reference Compound (30mg/kg) and PD-1+Reg Combination group; 10) Reference Compound (90mg/kg) and PD-1+Reg Combination group, with 6 mice per group.
Reg represents Regorafenib PD-1 represents an anti-PD-1 antibody; IV represents administration via intravenous injection; PO represents oral administration; QD represents once-daily administration; QW represents once-weekly administration; CR represents complete remission (complete disappearance of the tumor after the dosing cycle is completed); PR represents partial response (tumor volume reduction exceeding 30% relative to the initial volume upon completion of the administration cycle); SD represents stable disease (tumor volume reduction or growth not exceeding 30% relative to the initial volume upon completion of the administration cycle); Died represents mouse died before the dosing cycle is completed; Administration period* is once daily (QD) for 10 consecutive days, followed by a 16-day off-treatment period; the once-weekly (QW) regimen is administered only on Day 1 and Day 8.

H3K 27 Acetyl lysine = assay: Intracellular H3K 27 acetyl lysine level by ELISA in HeLa cells; format: cell-based; settings: 24 h of treatment
Protocol: as §2

HDAC8 = target: T3, HDAC8 (Homo sapiens, UniProt Q9BY41); assay: HDAC enzyme inhibitory activity, FRET method; format: biochemical; settings: Table 6; read-out: IC50 HDAC subtype 8
T3 sequence (Q9BY41 1-377): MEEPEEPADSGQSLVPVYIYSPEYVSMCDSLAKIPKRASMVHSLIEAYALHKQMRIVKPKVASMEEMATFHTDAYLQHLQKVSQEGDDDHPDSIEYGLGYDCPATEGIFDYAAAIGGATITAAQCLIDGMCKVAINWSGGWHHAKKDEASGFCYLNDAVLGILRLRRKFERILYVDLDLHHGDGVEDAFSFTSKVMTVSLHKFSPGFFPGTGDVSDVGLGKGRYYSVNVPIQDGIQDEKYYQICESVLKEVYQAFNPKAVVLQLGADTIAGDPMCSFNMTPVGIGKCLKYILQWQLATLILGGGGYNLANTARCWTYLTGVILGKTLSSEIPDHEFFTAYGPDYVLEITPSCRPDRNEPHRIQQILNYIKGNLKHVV
Protocol: as §3, §4

Sequence of HDAC1 (Q13547 whole entry, species assumed): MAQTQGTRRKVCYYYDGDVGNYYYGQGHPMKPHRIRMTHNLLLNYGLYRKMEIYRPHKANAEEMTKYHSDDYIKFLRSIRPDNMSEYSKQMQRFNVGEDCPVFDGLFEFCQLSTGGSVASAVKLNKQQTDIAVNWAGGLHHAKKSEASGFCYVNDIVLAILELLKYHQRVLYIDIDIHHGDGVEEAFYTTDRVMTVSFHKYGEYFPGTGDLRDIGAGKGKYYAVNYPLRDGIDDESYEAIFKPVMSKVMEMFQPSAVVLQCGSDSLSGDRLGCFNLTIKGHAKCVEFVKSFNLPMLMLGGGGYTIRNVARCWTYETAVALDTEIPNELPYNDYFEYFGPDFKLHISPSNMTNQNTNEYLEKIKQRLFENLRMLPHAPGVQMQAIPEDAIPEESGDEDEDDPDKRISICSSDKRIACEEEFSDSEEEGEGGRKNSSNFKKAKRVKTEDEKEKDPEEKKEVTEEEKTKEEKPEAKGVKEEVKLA
Sequence of HDAC3 (O15379 whole entry, species assumed): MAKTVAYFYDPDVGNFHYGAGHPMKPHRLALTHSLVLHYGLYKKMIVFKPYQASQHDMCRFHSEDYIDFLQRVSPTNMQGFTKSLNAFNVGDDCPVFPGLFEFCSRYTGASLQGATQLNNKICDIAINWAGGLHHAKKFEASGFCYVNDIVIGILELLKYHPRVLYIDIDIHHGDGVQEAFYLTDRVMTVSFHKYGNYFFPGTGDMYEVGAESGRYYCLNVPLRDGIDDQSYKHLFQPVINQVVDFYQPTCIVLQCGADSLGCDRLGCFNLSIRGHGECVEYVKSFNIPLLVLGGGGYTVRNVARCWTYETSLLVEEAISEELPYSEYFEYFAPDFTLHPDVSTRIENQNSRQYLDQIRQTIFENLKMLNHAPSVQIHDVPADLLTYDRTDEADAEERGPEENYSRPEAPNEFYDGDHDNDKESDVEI
Sequence of HDAC3 (Q9Y618 395-489 partner limits assumed, species assumed): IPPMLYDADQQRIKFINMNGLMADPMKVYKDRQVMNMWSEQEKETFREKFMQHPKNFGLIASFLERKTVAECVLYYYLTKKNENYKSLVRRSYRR
Sequence of HDAC4 (P56524 whole entry, species assumed): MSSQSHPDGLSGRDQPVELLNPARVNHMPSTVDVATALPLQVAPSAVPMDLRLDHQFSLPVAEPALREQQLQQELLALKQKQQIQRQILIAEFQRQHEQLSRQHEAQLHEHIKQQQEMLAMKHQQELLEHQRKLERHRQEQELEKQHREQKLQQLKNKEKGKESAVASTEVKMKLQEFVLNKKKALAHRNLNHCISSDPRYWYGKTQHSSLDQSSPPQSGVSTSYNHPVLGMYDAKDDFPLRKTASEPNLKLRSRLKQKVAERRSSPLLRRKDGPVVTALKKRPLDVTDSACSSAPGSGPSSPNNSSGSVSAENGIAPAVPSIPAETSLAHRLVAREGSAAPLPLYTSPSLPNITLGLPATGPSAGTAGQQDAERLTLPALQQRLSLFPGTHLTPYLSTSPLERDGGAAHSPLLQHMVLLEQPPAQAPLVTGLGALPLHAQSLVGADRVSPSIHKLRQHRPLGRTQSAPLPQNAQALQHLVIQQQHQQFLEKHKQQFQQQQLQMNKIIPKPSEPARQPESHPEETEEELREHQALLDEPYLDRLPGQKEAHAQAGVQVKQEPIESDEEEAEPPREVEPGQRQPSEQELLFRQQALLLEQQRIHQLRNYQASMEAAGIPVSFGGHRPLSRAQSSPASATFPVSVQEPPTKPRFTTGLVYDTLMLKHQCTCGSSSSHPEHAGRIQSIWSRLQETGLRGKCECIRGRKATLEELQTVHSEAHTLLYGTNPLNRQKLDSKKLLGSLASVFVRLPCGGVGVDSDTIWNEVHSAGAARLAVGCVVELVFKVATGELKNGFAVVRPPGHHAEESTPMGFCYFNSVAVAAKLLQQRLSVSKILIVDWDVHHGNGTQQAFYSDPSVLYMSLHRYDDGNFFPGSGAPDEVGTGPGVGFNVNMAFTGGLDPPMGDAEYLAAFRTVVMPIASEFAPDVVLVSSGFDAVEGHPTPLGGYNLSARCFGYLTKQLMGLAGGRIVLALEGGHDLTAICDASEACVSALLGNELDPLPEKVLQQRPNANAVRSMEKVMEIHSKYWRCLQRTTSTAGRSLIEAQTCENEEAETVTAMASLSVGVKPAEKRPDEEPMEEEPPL
Sequence of HDAC5 (Q9UQL6 whole entry, species assumed): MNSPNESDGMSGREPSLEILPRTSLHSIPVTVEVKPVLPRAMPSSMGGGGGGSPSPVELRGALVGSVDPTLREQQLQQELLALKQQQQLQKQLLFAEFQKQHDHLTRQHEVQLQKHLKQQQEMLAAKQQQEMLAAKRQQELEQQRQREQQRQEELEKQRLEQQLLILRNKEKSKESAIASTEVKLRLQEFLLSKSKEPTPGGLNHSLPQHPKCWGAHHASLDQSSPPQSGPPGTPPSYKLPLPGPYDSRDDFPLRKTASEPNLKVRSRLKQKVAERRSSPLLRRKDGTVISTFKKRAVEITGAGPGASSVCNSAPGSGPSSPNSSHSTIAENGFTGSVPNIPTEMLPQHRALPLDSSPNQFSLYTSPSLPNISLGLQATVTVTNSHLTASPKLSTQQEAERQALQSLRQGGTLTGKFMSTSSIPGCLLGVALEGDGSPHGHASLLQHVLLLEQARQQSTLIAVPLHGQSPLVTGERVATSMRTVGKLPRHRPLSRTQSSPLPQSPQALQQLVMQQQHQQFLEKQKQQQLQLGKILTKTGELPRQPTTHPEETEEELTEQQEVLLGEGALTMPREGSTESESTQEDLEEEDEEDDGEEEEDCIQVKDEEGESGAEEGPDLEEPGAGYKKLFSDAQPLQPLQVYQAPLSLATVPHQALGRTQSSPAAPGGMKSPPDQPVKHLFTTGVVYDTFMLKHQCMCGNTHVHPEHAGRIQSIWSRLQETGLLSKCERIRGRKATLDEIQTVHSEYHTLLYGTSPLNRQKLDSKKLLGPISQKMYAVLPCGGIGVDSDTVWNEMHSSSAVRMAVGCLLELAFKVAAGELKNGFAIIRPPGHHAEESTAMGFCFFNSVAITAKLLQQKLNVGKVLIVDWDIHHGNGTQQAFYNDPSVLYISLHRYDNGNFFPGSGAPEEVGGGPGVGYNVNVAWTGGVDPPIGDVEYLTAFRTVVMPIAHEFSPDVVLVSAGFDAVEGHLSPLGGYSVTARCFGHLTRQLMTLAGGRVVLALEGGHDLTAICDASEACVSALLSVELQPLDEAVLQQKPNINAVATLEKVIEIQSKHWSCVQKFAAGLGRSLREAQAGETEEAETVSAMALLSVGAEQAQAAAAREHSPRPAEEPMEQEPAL

SMILES: CS(C)(=O)=Nc1ccc(C(=O)Nc2cc(-c3ccc(F)cc3)ccc2N)cc1 [Compound 1, N-(4-Amino-4'-fluoro-[1,1'-biphenyl]-3-yl)-4-((dimethyl(oxo)-1^λ-6-sulfaneylidene)amino)benzamide]
- IC50 (293T cell): > 10 µM
- IC50 (Jurkat cell): 0.65 µM
- IC50 (HDAC1; Table 4, read-out: IC50 HDAC1): < 0.5 µM
- IC50 (HDAC1; Table 5, read-out: IC50 HDAC1): < 0.03 µM
- IC50 (HDAC1; Table 6, read-out: IC50 HDAC subtype 1): 0.0265 µM
- Change in body weight(%) ([1]; monotherapy 30 mg/kg QD PO): 1.13+3.79%
- Tumor response, number of mice (CR/PR/SD) ([1]; monotherapy 30 mg/kg QD PO): 1PR
- TGI(%) ([1]; monotherapy 30 mg/kg): 38.57%
- Change in body weight(%) ([1]; monotherapy 90 mg/kg QD PO): -10.53+7.1%
- Tumor response, number of mice (CR/PR/SD) ([1]; monotherapy 90 mg/kg QD PO): 1PR+1SD
- TGI(%) ([1]; monotherapy 90 mg/kg): 88.35%
- IC50 (HDAC3; Table 4, read-out: IC50 HDAC3): > 5 µM
- IC50 (HDAC3; Table 5, read-out: IC50 HDAC3): > 3 µM
- IC50 (HDAC3; Table 6, read-out: IC50 HDAC subtype 3): 5.51 µM
- Acetyl lysine Maximum (%) (Acetyl lysine): 500%
- Acetyl lysine Minimum effective concentration (Acetyl lysine): 16 nM
- IC50 (HDAC4): > 30 µM
- IC50 (HDAC11): > 30 µM
- IC50 (HDAC7): > 30 µM
- IC50 (HDAC5): > 30 µM
- Change in body weight(%) ([2]; monotherapy 90 mg/kg QD PO): 11.08 ± 1.08%
- Tumor response, number of mice (CR/PR/SD) ([2]; monotherapy 90 mg/kg QD PO, CR complete remission, PR partial response, SD stable disease, 6 mice per group): 5CR
- TGI(%) ([2]; monotherapy 90 mg/kg, QD for 10 consecutive days, PO): 100.54%
- complete tumor regression, % of mice ([2]; monotherapy group (5/6)): 83.3%
- H3K 27 Acetyl lysine Maximum (%) (H3K 27 Acetyl lysine): 200%
- H3K 27 Acetyl lysine Minimum effective concentration (H3K 27 Acetyl lysine): 80 nM
- IC50 (HDAC8): > 30 µM
